# Measurements: patent US7576099B2, “Amide derivatives as ion-channel ligands and pharmaceutical compositions and methods of using the same” (Renovis, Inc., priority 2005, dated 2009)
# Tests used:
# [1] = Half-life in human liver microsomes (HLM); assay type: in vitro ADME; conditions: human liver microsomes (HLM, HL101), pH 7.4, 1 μM compound, 0.78 mg/mL HLM, NADPH, 37° C.
# Description: Test compounds (1 μM) were incubated with 3.3 mM MgCl2 and 0.78 mg/mL HLM (HL101) in 100 mM potassium phosphate buffer (pH 7.4) at 37° C. on the 96-deep well plate. The reaction mixture was split into two groups, a non-P450 and a P450 group. NADPH was only added to the reaction mixture of the P450 group. An aliquot of samples of P450 group was collected at 0, 10, 30, and 60 min time point, where 0 min time point indicated the time when NADPH was added into the reaction mixture of P450 group. An aliquot of samples of non-P450 group was collected at −10 and 65 min time point. Collected aliquots were extracted with acetonitrile solution containing an internal standard. The precipitated protein was spun down in centrifuge (2000 rpm, 15 min). The compound concentration in supernatant was measured by LC/MS/MS system.
# The half-life value was obtained by plotting the natural logarithm of the peak area ratio of compounds/internal standard versus time. The slope of the line of best fit through the points yields the rate of metabolism (k). […]
# Exemplary compounds of the invention were tested (1 μM), and were incubated with 3.3 mM MgCl2 and 0.78 mg/mL HLM (HL101) in 100 mM potassium phosphate buffer (pH 7.4) at 37° C. on the 96-deep well plate. […] The compound concentration in supernatant was measured by LC/MS/MS system. […]
# [2] = molecular target: T1, VR1 (Homo sapiens, UniProt Q8NER1); assay: Calcium uptake assay (Fura2, Flex Station) in HEK 293 cells expressing hVR1; assay type: cell-based; set-up: expressed in transfected cells; host or cells: T-REx HEK 293 (Invitrogen), pcDNA5/TO vector, doxycycline induced; conditions: for inhibition at 0.3 µM: HEK293, read-out: Low pH % Inhib. @ 0.3 μM; for inhibition of the Capsaicin induced intracellular calcium response (FIGS. 2-6): 3 nM compound, capsaicin as agonist, calcium uptake assay method
# Target sequence in this assay (Q8NER1 whole entry): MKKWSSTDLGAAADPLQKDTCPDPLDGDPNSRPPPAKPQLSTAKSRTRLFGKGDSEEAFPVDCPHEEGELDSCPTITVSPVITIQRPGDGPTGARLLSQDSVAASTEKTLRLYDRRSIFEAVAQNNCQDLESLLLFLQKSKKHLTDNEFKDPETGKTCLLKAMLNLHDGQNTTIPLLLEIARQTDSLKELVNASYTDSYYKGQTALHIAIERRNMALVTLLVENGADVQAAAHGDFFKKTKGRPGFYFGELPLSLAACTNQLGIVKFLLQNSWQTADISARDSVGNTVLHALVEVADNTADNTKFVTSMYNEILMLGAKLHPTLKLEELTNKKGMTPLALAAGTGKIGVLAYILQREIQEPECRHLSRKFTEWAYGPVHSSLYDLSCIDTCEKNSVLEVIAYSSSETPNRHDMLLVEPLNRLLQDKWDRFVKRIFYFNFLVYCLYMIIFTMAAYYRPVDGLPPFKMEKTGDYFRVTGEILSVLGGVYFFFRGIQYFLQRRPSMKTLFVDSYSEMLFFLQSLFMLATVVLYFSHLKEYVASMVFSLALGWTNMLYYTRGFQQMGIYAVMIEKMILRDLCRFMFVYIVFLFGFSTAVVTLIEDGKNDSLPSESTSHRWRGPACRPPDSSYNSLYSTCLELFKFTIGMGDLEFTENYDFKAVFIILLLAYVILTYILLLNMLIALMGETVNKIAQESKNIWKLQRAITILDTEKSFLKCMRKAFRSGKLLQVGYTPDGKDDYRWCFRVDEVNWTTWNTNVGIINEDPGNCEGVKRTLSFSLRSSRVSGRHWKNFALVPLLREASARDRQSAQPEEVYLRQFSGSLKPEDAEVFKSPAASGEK
# [3] = system: VR1 receptor; assay: Calcium imaging assay in DRG neurons (Example 1); assay type: cell-based; conditions: 3 nM compound
# Description: Therefore the functional activity of compounds at the VR1 receptor may be determined by measuring changes in intracellular calcium levels in neurons such as the dorsal root ganglion. […] Prior to assay, cells were loaded with 5 μg/ml Fura2 in normal saline solution at 37° C. for 40 minutes. Cells were then washed with normal saline to remove dye before commencement of the experiment. The plated neurons were transferred into a chamber on the stage of a Nikon eclipse TE300 microscope after which neurons were allowed to attain a stable fluorescence for about 10 minutes before beginning the experiment. The assay consists of two stages, a pretreatment phase followed by a treatment phase. First, a solution of the test compound was added from a multivalve perfusion system to the cells for 1 minute (pretreatment). […] Fura2 was excited at 340 and 380 nm to indicate relative calcium ion concentration. Changes in wavelength measurements were made throughout the course of the experiment. The fluorescence ratio was calculated by dividing fluorescence measured at 340 nm by that at 380 nm. Data were collected using Intelligent Imaging's Slidebook software.
# [4] = molecular target: T1, VR1; assay: Acid stimulation assay (FDSS 6000, intracellular calcium); assay type: cell-based; set-up: host or cells: only 'the cell suspension' is mentioned; conditions: final assay buffer pH5.8, 15 minutes pre-incubation
# Description: The Acid-induced changes in the intracellular calcium concentration were monitored using FDSS 6000 (Hamamatsu Photonics, Japan), a fluorometric imaging system. The cell suspension in resting buffer (HBSS supplemented with 10 mM HEPES, pH 7.4) was pre-incubated with varying concentrations of the test compounds or resting buffer (buffer control) for 15 minutes at room temperature under dark conditions. The cells were automatically added the stimulating solution (HBSS supplemented with MES, final assay buffer pH5.8) by the FDSS 6000.
# Target sequence in this assay (Q8NER1 whole entry, species assumed): as the sequence (Q8NER1 whole entry) above
# [5] = 0.3 μM compound, low pH (protons) as agonist, HEK 293 cells expressing hVR1
SMILES,"inhibition at 0.3 µM [2, 5] [%]",other results
O=C(Nc1ccc2c(c1)OCCN2)c1ccc(/C=C/C(F)(F)F)cc1 [Compound 63],123,half-life at 1 μM [1]: 24 min
O=C(Nc1cccc2cnccc12)c1ccc(C#CC(F)(F)F)cc1 [Compound 45],–,inhibition of the Capsaicin induced intracellular calcium response (FIGS. 2-6) [2]: significant inhibition
Cc1cc(C#CC(C)(C)C)ccc1C(=O)Nc1ccc2c(c1)OCC(CO)N2 (stereo not drawn) [Compound 167],–,inhibition of the Capsaicin induced intracellular calcium response (FIGS. 2-6) [2]: significant inhibition
Cc1cc(/C=C/C(F)(F)F)ccc1C(=O)Nc1cnc2c(c1)OCC(CO)N2 (stereo not drawn) [Compound 233],–,inhibition of the Capsaicin induced intracellular calcium response (FIGS. 2-6) [2]: significant inhibition
CC1(C)CNc2cc(NC(=O)c3ccc(/C=C/C(F)(F)F)cc3)ccc2O1 [Compound 64],10,–
CC(C)(C)C#Cc1ccc(C(=O)Nc2cccc3cnccc23)cc1OCCN1CCOCC1 [Compound 60],69,half-life at 1 μM [1]: 21 min
Cc1cc(/C=C/C(F)(F)F)ccc1C(=O)Nc1ccc2sc(CO)nc2c1 [Compound 225],–,"inhibition of the Capsaicin induced intracellular calcium response (FIG. 1) [3]: significant inhibition; inhibition of the Capsaicin induced intracellular calcium response (FIG. 1) ([3]; listed as compound 225): reduced; % inhibition of capsaicin induced calcium influx ([3]; treatment time 20 sec, capsaicin 250 nM): >75%"
C/C(=C\C(F)(F)F)c1ccc(C(=O)Nc2ccc3c(c2)OCCN3)cc1 [Compound 96],–,inhibition of the Capsaicin induced intracellular calcium response (FIGS. 2-6) [2]: significant inhibition
Cc1cc(/C=C/C(F)(F)F)ccc1C(=O)Nc1cnc2ccccc2c1 [Compound 187],–,inhibition of the Capsaicin induced intracellular calcium response (FIGS. 2-6) [2]: significant inhibition
CC1(C)Oc2ccc(NC(=O)c3ccc(/C=C/C(F)(F)F)cc3)cc2NC1=O [Compound 58],19,–
CC(C)(C)C#Cc1ccc(C(=O)Nc2cnc3ccccc3c2)cn1 [Compound 24],101,–
CN1CCC(C)(C)c2ccc(NC(=O)c3ccc(C#CC(C)(C)C)cc3)cc21 [Compound 59],83,–
O=C(Nc1ccc2c(c1)OCCN2)c1ccc(C#CC(F)(F)F)cc1 [Compound 70],–,"IC50 [4]: 5 nM; Low pH % Inhib. @ 0.3 μM [2, 5]: 185%"
"O=C(Nc1ccc2c(c1)OCC(CO)O2)c1ccc(/C=C/C(F)(F)F)cc1 (single isomer, unassigned) [Compound 108]",–,IC50 [4]: 5 nM
O=C1COc2cc(NC(=O)c3ccc(/C=C/C(F)(F)F)cc3)ccc2N1 [Compound 61],10,–
O=C(Nc1ccc2c(c1)NCCO2)c1ccc(/C=C/C(F)(F)F)cc1 [Compound 62],14,–
O=C1COc2ccc(NC(=O)c3ccc(/C=C/C(F)(F)F)cc3)cc2N1 [Compound 57],58,–

# Further lines, with some results ahead:
"inhibition at 0.3 µM [2, 5] [%]",SMILES,other results
98,O=C(Oc1ccc2c(c1)OCC(CO)O2)c1ccc(C#CC2CC2)cc1 (stereo not drawn) [Compound 87],–
9,Cc1cc2c(NC(=O)c3ccc(/C=C/C(F)(F)F)cc3)cccc2nn1 [Compound 113],–
87,Cc1cc(/C=C/C(F)(F)F)ccc1C(=O)Nc1cnc2c(c1)OCC(O)CN2 (stereo not drawn) [Compound 189],–
54,Cc1cc(/C=C/C(F)(F)F)ccc1C(=O)NC1=CC2CNCCC2N=C1 (stereo not drawn) [Compound 229],–
83,O=C(Oc1ccc2c(c1)OC(CO)CO2)c1ccc(C#CC2CC2)cc1 (stereo not drawn) [Compound 86],–
